Measured values as given in US10273222B2 (CELGENE QUANTICEL RESEARCH, INC., priority 2013, dated 2019).

How the values were obtained:
[1] = target: Jarid1A (Homo sapiens (Human), UniProt P29375); assay: Jarid1A in vitro enzyme inhibition assay (TR-FRET); type: biochemical
From the text: The enzymatic assay of Jarid1A activity is based upon Time Resolved-Fluorescence Resonance Energy Transfer (TR-FRET) detection.

[2] = target: Jarid1B (Homo sapiens (Human), UniProt Q9UGL1); assay: Jarid1B in vitro enzyme inhibition assay (TR-FRET); type: biochemical
Chain of Jarid1B (Q9UGL1 2-751): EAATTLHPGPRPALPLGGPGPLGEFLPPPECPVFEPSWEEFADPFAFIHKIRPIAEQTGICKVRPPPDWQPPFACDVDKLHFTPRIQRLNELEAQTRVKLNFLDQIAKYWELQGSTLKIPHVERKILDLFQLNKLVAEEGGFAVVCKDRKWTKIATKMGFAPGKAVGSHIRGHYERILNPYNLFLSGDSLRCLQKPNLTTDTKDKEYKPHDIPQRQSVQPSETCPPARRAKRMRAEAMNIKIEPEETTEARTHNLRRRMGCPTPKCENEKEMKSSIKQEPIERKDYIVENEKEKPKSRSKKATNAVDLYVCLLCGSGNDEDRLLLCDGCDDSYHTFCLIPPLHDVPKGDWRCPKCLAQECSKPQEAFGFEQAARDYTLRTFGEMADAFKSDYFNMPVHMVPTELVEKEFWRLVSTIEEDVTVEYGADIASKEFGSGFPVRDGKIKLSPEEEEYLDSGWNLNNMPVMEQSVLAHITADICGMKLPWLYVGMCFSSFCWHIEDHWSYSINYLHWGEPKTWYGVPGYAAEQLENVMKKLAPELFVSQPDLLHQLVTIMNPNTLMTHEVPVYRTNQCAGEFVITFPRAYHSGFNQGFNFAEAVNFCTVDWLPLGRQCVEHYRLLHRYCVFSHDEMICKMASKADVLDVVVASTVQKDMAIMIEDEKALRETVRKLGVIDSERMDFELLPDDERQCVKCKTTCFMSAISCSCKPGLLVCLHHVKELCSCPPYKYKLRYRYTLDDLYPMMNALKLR

[3] = target: JMJD2C (Homo sapiens (Human), UniProt Q9H3R0); assay: JMJD2C in vitro enzyme inhibition assay (TR-FRET); type: biochemical
Chain of JMJD2C (Q9H3R0 2-372): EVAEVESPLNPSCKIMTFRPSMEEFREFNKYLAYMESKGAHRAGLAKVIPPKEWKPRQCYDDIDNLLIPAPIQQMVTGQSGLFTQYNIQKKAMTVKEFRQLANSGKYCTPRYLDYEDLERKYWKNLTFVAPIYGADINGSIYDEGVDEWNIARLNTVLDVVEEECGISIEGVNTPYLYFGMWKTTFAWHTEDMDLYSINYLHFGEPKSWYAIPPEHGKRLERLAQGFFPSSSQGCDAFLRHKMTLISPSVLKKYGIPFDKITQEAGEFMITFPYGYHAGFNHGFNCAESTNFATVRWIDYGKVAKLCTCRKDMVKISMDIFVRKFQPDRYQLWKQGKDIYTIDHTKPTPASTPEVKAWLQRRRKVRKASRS
Experimental: This assay determines the ability of a test compound to inhibit Jarid1A, Jarid1B, JMJD2C, and JMJD2A demethylase activity. […] Baculovirus expressed JMJD2C (GenBank Accession #BC143571, AA 2-372) was purchased from BPS Bioscience (Cat#50105).
The ability of test compounds to inhibit the activity of JMJD2C was determined in 384-well plate format under the following reaction conditions: 0.3 nM JMJD2C, 300 nM H3K9me3-biotin labeled peptide (Anaspec cat #64360), 2 μM alpha-ketoglutaric acid in assay buffer of 50 mM HEPES, pH7.3, 0.005% Brij35, 0.5 mM TCEP, 0.2 mg/ml BSA, 50 μM sodium L-ascorbate, and 2 μM ammonium iron(II) sulfate. Reaction product was determined quantitatively by TR-FRET after the addition of detection reagent Phycolink Streptavidin-allophycocyanin (Prozyme) and Europium-anti-di-methylated histone H3 lysine 9 (H3K9me2) antibody (PerkinElmer) in the presence of 5 mM EDTA in LANCE detection buffer (PerkinElmer) at a final concentration of 50 nM and 1 nM, respectively.
The assay reaction was initiated by the following: 2 μl of the mixture of 900 nM H3K9me3-biotin labeled peptide and 6 μM alpha-ketoglutaric acid with 2 μl of 11-point serial diluted inhibitor in 3% DMSO were added to each well of the plate, followed by the addition of 2 μl of 0.9 nM JMJD2C to initiate the reaction. The reaction mixture was incubated at room temperature for 30 minutes, and terminated by the addition of 6 μl of 5 mM EDTA in LANCE detection buffer containing 100 nM Phycolink Streptavidin-allophycocyanin and 2 nM Europium-anti-H3K9me2 antibody. Plates were read by EnVisionMultilabel Reader in TR-FRET mode (excitation at 320 nm, emission at 615 nm and 665 nm) after 1 hour incubation at room temperature. A ratio was calculated (665/615) for each well and fitted to determine inhibition constant (IC50).

[4] = target: JMJD2A (Homo sapiens (Human), UniProt O75164); assay: JMJD2A in vitro enzyme inhibition assay (TR-FRET); type: biochemical
Chain of JMJD2A (O75164 1-350): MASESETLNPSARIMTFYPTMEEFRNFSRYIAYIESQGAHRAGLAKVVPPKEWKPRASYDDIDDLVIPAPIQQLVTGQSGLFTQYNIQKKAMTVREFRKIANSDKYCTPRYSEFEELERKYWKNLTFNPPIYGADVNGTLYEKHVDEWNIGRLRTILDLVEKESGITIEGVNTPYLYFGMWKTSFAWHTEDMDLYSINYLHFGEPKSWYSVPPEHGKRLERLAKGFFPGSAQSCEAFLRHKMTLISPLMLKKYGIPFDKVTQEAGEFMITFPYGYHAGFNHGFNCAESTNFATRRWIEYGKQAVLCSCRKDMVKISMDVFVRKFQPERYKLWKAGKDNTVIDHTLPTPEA
Experimental: This assay determines the ability of a test compound to inhibit Jarid1A, Jarid1B, JMJD2C, and JMJD2A demethylase activity. […] Baculovirus expressed JMJD2A (GenBank Accession #NM_014663, AA 1-350) was purchased from BPS Bioscience (Cat#50123).
The ability of test compounds to inhibit the activity of JMJD2A was determined in 384-well plate format under the following reaction conditions: 2 nM JMJD2A, 300 nM H3K9me3-biotin labeled peptide (Anaspec cat #64360), 2 μM alpha-ketoglutaric acid in assay buffer of 50 mM HEPES, pH7.3, 0.005% Brij35, 0.5 mM TCEP, 0.2 mg/ml BSA, 50 μM sodium L-ascorbate, and 2 μM ammonium iron(II) sulfate. Reaction product was determined quantitatively by TR-FRET after the addition of detection reagent Phycolink Streptavidin-allophycocyanin (Prozyme) and Europium-anti-di-methylated histone H3 lysine 9 (H3K9me2) antibody (PerkinElmer) in the presence of 5 mM EDTA in LANCE detection buffer (PerkinElmer) at a final concentration of 50 nM and 1 nM, respectively.
The assay reaction was initiated by the following: 2 μl of the mixture of 900 nM H3K9me3-biotin labeled peptide and 6 μM alpha-ketoglutaric acid with 2 μl of 11-point serial diluted inhibitor in 3% DMSO were added to each well of plate, followed by the addition of 2 μl of 6 nM JMJD2A to initiate the reaction. The reaction mixture was incubated at room temperature for 30 minutes, and terminated by the addition of 6 μl of 5 mM EDTA in LANCE detection buffer containing 100 nM Phycolink Streptavidin-allophycocyanin and 2 nM Europium-anti-H3K9me2 antibody. Plates were read by EnVisionMultilabel Reader in TR-FRET mode (excitation at 320 nm, emission at 615 nm and 665 nm) after 1 hour incubation at room temperature. A ratio was calculated (665/615) for each well and fitted to determine inhibition constant (IC50).

[5] = target: FBXL10 (Homo sapiens (Human), UniProt Q8NHM5); assay: FBXL10 in vitro enzyme inhibition assay (AlphaScreen); type: biochemical
Chain of FBXL10 (Q8NHM5 1-650): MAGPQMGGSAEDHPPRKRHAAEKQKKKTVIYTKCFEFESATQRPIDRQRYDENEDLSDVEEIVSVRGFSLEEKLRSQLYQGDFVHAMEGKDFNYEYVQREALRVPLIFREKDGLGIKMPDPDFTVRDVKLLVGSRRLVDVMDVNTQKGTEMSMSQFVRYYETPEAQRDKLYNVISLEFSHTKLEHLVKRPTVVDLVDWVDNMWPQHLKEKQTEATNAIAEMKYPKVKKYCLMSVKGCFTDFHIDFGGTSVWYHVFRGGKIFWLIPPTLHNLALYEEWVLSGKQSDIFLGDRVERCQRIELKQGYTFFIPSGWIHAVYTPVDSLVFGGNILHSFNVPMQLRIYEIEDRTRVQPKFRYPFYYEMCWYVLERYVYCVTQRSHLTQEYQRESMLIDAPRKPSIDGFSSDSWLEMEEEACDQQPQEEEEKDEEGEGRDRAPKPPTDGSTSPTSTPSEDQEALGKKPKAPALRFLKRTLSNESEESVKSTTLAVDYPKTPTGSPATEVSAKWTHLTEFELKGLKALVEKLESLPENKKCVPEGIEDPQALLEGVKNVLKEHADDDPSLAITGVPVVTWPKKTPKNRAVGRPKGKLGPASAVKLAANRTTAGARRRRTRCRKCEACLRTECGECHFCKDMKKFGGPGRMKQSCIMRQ
Summary of the method: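 AlphaScreen read-out of H3K36me1 product, detected with anti-H3K36me1 antibody plus streptavidin donor and Protein A acceptor beads (final 10 μg/ml) in 50 mM HEPES pH 7.3, 10 mM NaCl, 0.005% Brij35, 5 mM EDTA, 2 mg/ml BSA. Beads incubated 2 h to overnight at room temperature; IC50 derived from AlphaScreen signal.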

[6] = test system: KDM5A and KDM5B; assay: In vitro cell-based assay: tri-methyl H3K4 immuno-blotting in ZR-75-1 cells (cellular inhibition of KDM5A/B); details: ZR-75-1 breast cancer cells, 72 hours, tri-methylated H3K4 level; read-out: IC50 ZR-75-1 cell-MOA
Experimental: This quantitative immuno-blotting assay measures the amount tri-methylated histone H3 at amino acid Lysine number 4, a specific substrate and product of the direct enzymatic activity of the histone demethylases KDM5A and KDM5B from extracts of the ZR-75-1 breast cancer cell line.
This assay is a fluorometric immunoassay for the quantification of tri-methyl H3K4 extracted from cells treated with test compound and is used as a measure of the cellular inhibition of KDM5A/B.
Extracts were prepared containing all of the cellular histone material using detergent based lysis and sonication methods. These lysates were subsequently normalized for total protein content using a colorimetric bicinchonic acid assay (MicroBCA Pierce/Thermo Scientific). Normalized cell extracts were then subjected to typical immuno-blotting procedures using NuPage reagents (Life Technologies). Electrophoretically separated histones were then transferred and immobilized using polyvinylidene difluoride membrane (Immobilon-FL Millipore). The amount of tri-methylated lysine 4 of histone H3 was detected using an antibody specific to the tri-methylated state (Cell Signaling Technologies) and quantified on an infrared imager using a densitometry software package (Odyssey CLx, Image Studio, Li-Cor). This background subtracted densitometry value was reported as a ration of the GAPDH amount for that sample and then calculated as a percent of the DMSO treated sample. The software package XL-fit (IDBS) was then used to calculate a relative IC50 value for the dilution series of a given test compound according to the equation: fit=(D+((Vmax*(x^n))/((x^n)+(Km^n)))).

Chain of Jarid1A (P29375 1-1090): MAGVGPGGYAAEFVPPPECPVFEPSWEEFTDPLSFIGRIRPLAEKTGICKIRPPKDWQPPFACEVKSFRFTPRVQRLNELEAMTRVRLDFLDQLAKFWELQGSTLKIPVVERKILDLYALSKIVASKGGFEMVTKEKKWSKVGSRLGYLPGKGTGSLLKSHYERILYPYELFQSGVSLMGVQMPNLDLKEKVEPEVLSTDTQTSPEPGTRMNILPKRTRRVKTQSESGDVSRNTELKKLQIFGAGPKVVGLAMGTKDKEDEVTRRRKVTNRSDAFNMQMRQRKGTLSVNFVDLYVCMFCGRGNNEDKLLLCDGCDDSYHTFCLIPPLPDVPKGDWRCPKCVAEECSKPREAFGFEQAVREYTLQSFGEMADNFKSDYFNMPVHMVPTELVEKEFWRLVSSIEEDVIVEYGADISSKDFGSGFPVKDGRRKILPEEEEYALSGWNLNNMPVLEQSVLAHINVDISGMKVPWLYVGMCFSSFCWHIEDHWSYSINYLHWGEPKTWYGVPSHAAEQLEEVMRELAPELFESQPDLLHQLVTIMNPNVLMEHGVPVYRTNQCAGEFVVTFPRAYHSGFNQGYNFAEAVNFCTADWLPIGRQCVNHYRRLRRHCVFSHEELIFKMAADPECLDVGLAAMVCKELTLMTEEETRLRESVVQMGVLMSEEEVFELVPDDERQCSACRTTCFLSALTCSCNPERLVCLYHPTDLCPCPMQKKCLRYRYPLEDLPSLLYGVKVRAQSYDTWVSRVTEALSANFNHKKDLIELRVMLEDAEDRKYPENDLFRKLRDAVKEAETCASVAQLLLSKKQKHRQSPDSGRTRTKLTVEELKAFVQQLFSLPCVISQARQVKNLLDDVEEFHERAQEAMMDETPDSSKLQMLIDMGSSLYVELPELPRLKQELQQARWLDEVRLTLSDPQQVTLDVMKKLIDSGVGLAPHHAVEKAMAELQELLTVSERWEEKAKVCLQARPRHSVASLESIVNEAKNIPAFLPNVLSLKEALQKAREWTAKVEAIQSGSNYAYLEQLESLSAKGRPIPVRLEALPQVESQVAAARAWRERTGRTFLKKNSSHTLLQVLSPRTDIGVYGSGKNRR

Structure (SMILES) | IC50 [1] [nM] | IC50 [2] [nM] | IC50 [3] [nM] | IC50 [4] [nM] | IC50 [5] [nM] | IC50 [6] [µM]
Cn1cnc(-c2cc(C(=O)O)ccn2)c1 [Example 1, 2-(1-methyl-1H-imidazol-4-yl)pyridine-4-carboxylic acid] | ≤ 100 | ≤ 100 | ≤ 100 | ≤ 100 | ≤ 100 | > 10
Cn1cnc(-c2cc(C(=O)O)ccn2)c1-c1ccc(F)cc1 [Example 23, 2-[5-(4-fluorophenyl)-1-methyl-1H-imidazol-4-yl]pyridine-4-carboxylic acid] | ≤ 100 | ≤ 100 | 100 to 1000 | 100 to 1000 | ≤ 100 | 1 to 10
O=C(O)c1ccnc(-c2cn(CCN3CCCC3)cn2)c1 [Example 43, 2-{1-[2-(pyrrolidin-1-yl)ethyl]-1H-imidazol-4-yl}pyridine-4-carboxylic acid] | ≤ 100 | ≤ 100 | ≤ 100 | ≤ 100 | 1000 to 10000 | > 10
Cn1cnc(-c2cc(-c3nn[nH]n3)ccn2)c1 [Example 62, 2-(1-methyl-1H-imidazol-4-yl)-4-(2H-tetrazol-5-yl)pyridine] | 100 to 1000 | 100 to 1000 | > 10000 | > 10000 | ≤ 100 | > 10
O=C(O)c1ccnc(-c2cn(CCN(Cc3ccc(F)cc3)C3CC3)cn2)c1 [Example 71, 2-[1-[2-[cyclopropyl-[(4-fluorophenyl)methyl]amino]ethyl]imidazol-4-yl]pyridine-4-carboxylic acid] | ≤ 100 | ≤ 100 | ≤ 100 | ≤ 100 | ≤ 100 | 1 to 10
O=C(O)c1ccnc(-c2cn(CCN3CCCc4ccccc43)cn2)c1 [Example 88, 2-[1-[2-(3,4-dihydro-2H-quinolin-1-yl)ethyl]imidazol-4-yl]pyridine-4-carboxylic acid] | ≤ 100 | ≤ 100 | 100 to 1000 | ≤ 100 | ≤ 100 | 1 to 10
COc1ccccc1CCn1cnc(-c2cc(C(=O)O)ccn2)c1 [Example 95, 2-[1-[2-(2-methoxyphenyl)ethyl]imidazol-4-yl]pyridine-4-carboxylic acid] | ≤ 100 | ≤ 100 | 100 to 1000 | 100 to 1000 | ≤ 100 | > 10
Cc1ccccc1CCn1cnc(-c2cc(C(=O)O)ccn2)c1 [Example 96, 2-[1-[2-(2-methylphenyl)ethyl]imidazol-4-yl]pyridine-4-carboxylic acid] | ≤ 100 | ≤ 100 | 100 to 1000 | 100 to 1000 | ≤ 100 | 1 to 10
O=C(O)c1ccnc(-c2cn(CCc3ccccc3Cl)cn2)c1 [Example 97, 2-[1-[2-(2-chlorophenyl)ethyl]imidazol-4-yl]pyridine-4-carboxylic acid] | ≤ 100 | ≤ 100 | 100 to 1000 | ≤ 100 | ≤ 100 | 1 to 10
O=C(O)c1ccnc(-c2cn(CCc3ccccc3C(F)(F)F)cn2)c1 [Example 98, 2-[1-[2-[2-(trifluoromethyl)phenyl]ethyl]imidazol-4-yl]pyridine-4-carboxylic acid] | ≤ 100 | ≤ 100 | ≤ 100 | ≤ 100 | ≤ 100 | > 10
O=C(O)c1ccnc(-c2cn(C3Cc4ccccc4C3)cn2)c1 [Example 99, 2-[1-(2,3-dihydro-1H-inden-2-yl)imidazol-4-yl]pyridine-4-carboxylic acid] | ≤ 100 | ≤ 100 | 100 to 1000 | 100 to 1000 | ≤ 100 | 1 to 10
O=C(O)c1ccnc(-c2cn(Cc3ccc(F)cc3)cn2)c1 [Example 101, 2-[1-[(4-fluorophenyl)methyl]imidazol-4-yl]pyridine-4-carboxylic acid] | ≤ 100 | ≤ 100 | 100 to 1000 | 100 to 1000 | ≤ 100 | 1 to 10
O=C(O)c1ccnc(-c2cn(Cc3ccccc3F)cn2)c1 [Example 102, 2-[1-[(2-fluorophenyl)methyl]imidazol-4-yl]pyridine-4-carboxylic acid] | ≤ 100 | ≤ 100 | 100 to 1000 | 100 to 1000 | ≤ 100 | 1 to 10
CC(c1ccccc1)n1cnc(-c2cc(C(=O)O)ccn2)c1 (stereo not shown) [Example 103] | ≤ 100 | ≤ 100 | ≤ 100 | ≤ 100 | ≤ 100 | 1 to 10
O=C(O)c1ccnc(-c2cn(Cc3cccc(F)c3)cn2)c1 [Example 104, 2-[1-[(3-fluorophenyl)methyl]imidazol-4-yl]pyridine-4-carboxylic] | ≤ 100 | ≤ 100 | 100 to 1000 | – | ≤ 100 | > 10
CC(C)(Cn1cnc(-c2cc(C(=O)O)ccn2)c1)c1ccccc1Cl [Example 105, 2-[1-[2-(2-chlorophenyl)-2-methylpropyl]imidazol-4-yl]pyridine-4-carboxylic acid] | ≤ 100 | ≤ 100 | 1000 to 10000 | 100 to 1000 | ≤ 100 | 1 to 10
CC(Cc1ccccc1)n1cnc(-c2cc(C(=O)O)ccn2)c1 (stereo not shown) [Example 106, 2-[1-(1-phenylpropan-2-yl)imidazol-4-yl]pyridine-4-carboxylic acid] | ≤ 100 | ≤ 100 | 100 to 1000 | – | ≤ 100 | 1 to 10
